Results on 25 molecules are retold here after patent US9393221B2, “Methods and compounds for reducing intracellular lipid storage” (THE GENERAL HOSPITAL CORPORATION, priority 2011, dated 2016).

Structures can show the parent of a compound that is named as a salt.

In assay [1] the test system is ATGL-KO iPSCs. Description: Cellular metabolism assay (OCR, ECAR). The format is cell-based, mouse. As to conditions: for extracellular acidification rate (ECAR) / oxygen consumption rate (OCR): day 9 differentiated cells pre-treated overnight at screen concentration; for OCR/ECAR ratio after addition of CCCP: pre-treated cells (FIG. 7d). Here is the method:
(§1) FIGS. 7a-7g depict that glycolytic switch inducers modulate the metabolic profile of WT and KO iPSCs. Measurement of (FIG. 7a) oxygen consumption rate (OCR) and (FIG. 7b) extracellular acidification rate (ECAR) in WT and KO iPSCs at day 10 of differentiation following compound pre-treatment for 16 h. Data are expressed as mean±s.d. (n=10 samples, with 3 measurements each) relative to DMSO-treated WT cells. (*P<0.001, student's t-test between compound-treated and DMSO ? treated cells of same type. **P<0.001, student's t-test between DMSO-treated WT and KO cells). Measurement of OCAR/ECAR ratios for drug-treated (FIG. 7c) WT and (FIG. 7d) KO iPSCs following treatment carbonyl cyanide m-chlorophenyl hydrazone (CCCP), at the time indicated (arrow). Antimycin, an electron transport chain inhibitor, was added to each well at the end of the assay to verify that mitochondrial function was intact in drug-treated cells. A schematic model of ATGL ? mediated lipid metabolism in shown for (FIG. 7e) WT cells, (FIG. 7f) KO cells, and (FIG. 7g) drug-treated KO cells.
(§2) We next investigated whether the top-scoring compounds with reported glycolytic switch properties could in fact modulate the OCR and ECAR of differentiated WT and KO iPSCs. We pre-treated day 9 differentiated cells overnight with mefloquine, vinpocetine, and perhexyline at their screen concentrations (Table 3) and measured the changes in OCR and ECAR. […] This is consistent with the increased adaptation to glucose in ATGL-KO cells.
(§3) To determine whether the glycolytic switch inducers work through common or distinct mechanisms, we next examined how the responses of ATGL-KO and WT cells to challenge with carbonyl cyanide m-chlorophenyl hydrazone (CCCP) differed upon pre-treatment with glycolytic switch inducers. CCCP is an uncoupler of the mitochondrial hydrogen gradient that induces maximal cellular oxidative respiration (Goldsby et al., 1963). […] This was due entirely to an increase in OCAR, as the ECAR levels remained relatively unchanged (data not shown).
(§4) ATGL-KO and WT iPSCs were differentiated as EBs to day 9, then collagenase-dissociated and re-plated onto gelatin-coated XF24 plates (Seahorse Bioscience, Andover, Mass.) at a density of 250,000 cells/well. Following an overnight incubation (12-16 hrs) in differentiation medium supplemented with drugs or DMSO, the cells were acclimated to atmospheric CO2 in drug-containing buffer-free medium (Wu, M. et al., 2007) for 1 hour at 37° C. Oxygen consumption rates (OCR) and extracellular acidification rates (ECAR) were measured on the Seahorse Extracellular Flux 24 Analyzer using previously established procedures (Gohil et al., 2010; Wu, M. et al., 2007) and normalized against cell number as assessed by the resazurin assay described above. In all wells, antimycin, an electron transport chain inhibitor, was added at the end of the assay to ascertain that mitochondrial function in the drug-treated cells had been intact and that the OCR and ECAR results were not due to direct mitochondrial toxicity effects from drug treatment.

In assay [2] the test system is WT iPSCs. Put plainly: Cellular metabolism assay (OCR, ECAR). It counts as cell-based, mouse. As to conditions: for extracellular acidification rate (ECAR) / oxygen consumption rate (OCR): day 9 differentiated cells pre-treated overnight at screen concentration; for OCR/ECAR ratio after addition of CCCP: pre-treated cells (FIG. 7c). As for the experimental part: as §1, §2, §3, §4

Assay [3] concerns ATGL-KO mice. Put plainly: 18-week observer-blinded placebo-controlled treatment study. It counts as in vivo, mouse. As to conditions: for cardiac function (echocardiography): 14 weeks of age; for overall triglyceride content in the heart: 14 weeks old ATGL-KO mice (FIG. 8d). The text has this:
FIGS. 8a-8f show graphs of the in vivo validation of the drug hit efficacy on ATGL-KO mice. (FIG. 8a) Kaplan-Meier survival plot of ATGL-KO mice treated with Mefloquine (N=15), Perhexyline (N=15), Vinpocetin low dose (N=15), Vinpocetin high dose (N=15), or water alone (N=15) (FIG. 8b) Contractile function of wild type mice treated with Mefloquine (Mef), Perhexyline (Per), Vinpocetin (Vin), and water (None) at 3 weeks of age before drug treatment (black) and at 18 weeks of age (white) after drug treatment. (FIG. 8c) Contractile function of ATGL-KO mice treated with Mef, Per, Vin, and water at 3 weeks of age before drug treatment (black) and at 10 (gray), and 14 (white) weeks of age after drug treatment. (FIG. 8d) Measurement of triglyceride content in hearts of 14 weeks old wild type (WT) and ATGL-KO (KO) mice after treatment with the indicated drugs. V (H)—vinpocetin high dose, V (L)—vinpocetin low dose. (FIG. 8e) Measurement of triglyceride content in the liver, lung, and kidney of WT mice (gray) and ATGL-KO mice treated with Per (red), Mef (green), V (H) (blue), V (L) (orange), or water (black). (FIG. 8f) Quantitative PCR analysis of metabolic gene expression in the hearts of 14 weeks old ATGL-KO mice treated with water (black), Per (red), and Mef (green) and in the hearts of age-matched WT mice (gray).
We designed an 18-week observer-blinded placebo-controlled study treating both wild type and ATGL-KO mice with mefloquine, perhexyline, and high and low doses of vinpocetin starting from 3 weeks after birth. We assess the survival of each animal throughout the entire treatment course. We also measured the cardiac function of each animal before treatment and at 10 and 14 weeks of age. […] The effect of these drugs on triglyceride content was observed variably in other tissues such as liver, lung, and kidney (FIG. 8e). While these drugs were able to elicit a similar reduction in triglyceride content, they appear to do so by recruiting genes involved in distinct pathways. (FIG. 8f)

Assay [4] has as its system ATGL-KO iPSCs. Description: High throughput iPSC chemical screening, Oil Red O (ORO) lipid accumulation. The format is cell-based, mouse. To be noted: for Rank in normalized ORO score from screen: glycolytic switch compounds; for Z-score: normalized ORO level vs DMSO-treated cells, compound present during 7 days differentiation, 96-well, negative = decrease in lipid accumulation.

Assay [5] deals with NLSD-M human iPSCs. Put plainly: TG content in differentiated human iPSCs. As to conditions: differentiated human NLSD-M iPSCs (FIG. 9b). The format is cell-based.

Consider `OC(c1cc(C(F)(F)F)nc2c(C(F)(F)F)cccc12)C1CCCCN1` (stereo not drawn) [Mefloquine hydrochloride], for which, in assay [1], the “extracellular acidification rate (ECAR)” value was “increased ECAR”, the “oxygen consumption rate (OCR)” value is on record as “decreased OCR” and the “OCR/ECAR ratio after addition of CCCP” value is “increased the ratio of OCAR/ECAR”. Also, in assay [2], the “extracellular acidification rate (ECAR)” value was “increased ECAR”, the “oxygen consumption rate (OCR)” value is on record as “decreased OCR” and the “OCR/ECAR ratio after addition of CCCP” value was “increased the ratio of OCAR/ECAR”. In assay [3], the “cardiac function (echocardiography)” value is “echocardiographic improvements in cardiac function” and the “overall triglyceride content in the heart” value (from here on “overall triglyceride content”) is recorded as “reduction in the overall triglyceride content in the heart”. In assay [4], the “Rank in normalized ORO score from screen” value amounted to 3 and the Z-score is listed as −2.3573. Also, the “intracellular lipid content (TG content)” value in assay [5] was “significantly reduce intracellular lipid content”.
For `C1CCC(C(CC2CCCCN2)C2CCCCC2)CC1` (stereo not drawn) [Perhexiline maleate], in assay [1], the “impact on OCR in KO cells compared to WT cells” value is “smaller impact on OCR in KO cells compared to WT cells”, the “extracellular acidification rate (ECAR)” value is given as “increased ECAR”, the “oxygen consumption rate (OCR)” value is given as “decreased OCR” and the “OCR/ECAR ratio after addition of CCCP” value is “no increase in the OCR/ECAR ratio”. Also, in assay [2], the “extracellular acidification rate (ECAR)” value is listed as “increased ECAR”, the “oxygen consumption rate (OCR)” value is “decreased OCR” and the “OCR/ECAR ratio after addition of CCCP” value was “no increase in the OCR/ECAR ratio”. Moreover, in assay [3], the “cardiac function (echocardiography)” value is given as “echocardiographic improvements in cardiac function” and the “overall triglyceride content” value was “reduction in the overall triglyceride content in the heart”. In assay [4], the “Rank in normalized ORO score from screen” value is on record as 4 and the Z-score is −2.3117.
With `CCOC(=O)C1=C[C@]2(CC)CCCN3CCc4c(n1c1ccccc41)[C@@H]32` [Vinpocetine], in assay [1], the “extracellular acidification rate (ECAR)” value is reported as “increased ECAR”, the “oxygen consumption rate (OCR)” value is reported as “decreased OCR” and the “OCR/ECAR ratio after addition of CCCP” value was “increased the ratio of OCAR/ECAR”. In assay [2], the “extracellular acidification rate (ECAR)” value was “increased ECAR”, the “oxygen consumption rate (OCR)” value was “decreased OCR” and the “OCR/ECAR ratio after addition of CCCP” value was “increased the ratio of OCAR/ECAR”. Further, in assay [3], the “overall triglyceride content” value was “reduction in the overall triglyceride content in the heart”. Also, in assay [4], the “Rank in normalized ORO score from screen” value is recorded as 2 and the Z-score is listed as −2.4105.
Molecule Isoetharine mesylate salt had a Z-score in assay [4] of −0.7902.
The molecule Ketanserin tartrate hydrate returned a Z-score in assay [4] of 1.256.
On the same count and under the same terms, then Lycorine hydrochloride, with 21.7885; and Mephentermine hemisulfate, with 0.04889.
Consider Merbromin, for which, in assay [4], the “Rank in normalized ORO score from screen” value was found to be 743 and the Z-score amounted to 0.2933.
Pizotifen malate gave a Z-score in assay [4] of −1.2994.
Same read-out and setting: with Pridinol methanesulfonate salt the figure was 1.97; with Pyrantel tartrate, −0.1933; with Retrorsine, 0.08676.
The same measure, in the same setting: then S(−)Eticlopride hydrochloride, with −0.7335.
The same measure, in the same setting: with Solanine alpha the figure was −1.7798; with Spiramycin, −1.0612; with Terbutaline hemisulfate, 2.278.
The molecule Thioproperazine dimesylate gave a Z-score in assay [4] of −0.4051.
On the same count and under the same terms, then Timolol maleate salt, with 0.4592; and Trimeprazine tartrate, with −1.418; and Trimipramine maleate salt, with −0.138.
On the same count and under the same terms, then Tropicamide, with 0.5083; and Tyloxapol, with 0.9571; and Verteporfin, with −0.2331.
Still for that read-out and setting: then Viomycin sulfate, with 1.64; and Vitamin K2, with 0.6129.
